# Data as given in US9273057B2 (Bristol-Myers Squibb Company, priority 2012, dated 2016).
# Structures can show the parent of a compound that is named as a salt.
# Target: CK2A1 (CK2α/β) (Homo sapiens, UniProt P68400)
# Test: CK2 kinase assay, CK2A1 (CK2α/β)
# Format: biochemical
# Details: Table A; read-out: CK2A1 (CK2α/β) (IC50)
# Sequence of CK2A1 (CK2α/β) (P68400 whole entry, species assumed): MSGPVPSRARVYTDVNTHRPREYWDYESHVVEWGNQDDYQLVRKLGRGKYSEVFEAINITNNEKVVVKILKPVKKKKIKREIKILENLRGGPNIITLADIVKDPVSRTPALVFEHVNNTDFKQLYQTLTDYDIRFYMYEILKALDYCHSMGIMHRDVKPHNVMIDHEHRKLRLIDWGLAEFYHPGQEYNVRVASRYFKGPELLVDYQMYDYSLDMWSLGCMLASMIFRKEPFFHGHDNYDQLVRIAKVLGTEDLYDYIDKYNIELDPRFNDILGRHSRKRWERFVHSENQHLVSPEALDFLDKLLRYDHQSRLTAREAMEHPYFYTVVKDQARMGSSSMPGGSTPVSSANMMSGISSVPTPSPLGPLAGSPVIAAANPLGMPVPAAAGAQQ
# Sequence of CK2A1 (CK2α/β) (P67870 whole entry partner, species assumed): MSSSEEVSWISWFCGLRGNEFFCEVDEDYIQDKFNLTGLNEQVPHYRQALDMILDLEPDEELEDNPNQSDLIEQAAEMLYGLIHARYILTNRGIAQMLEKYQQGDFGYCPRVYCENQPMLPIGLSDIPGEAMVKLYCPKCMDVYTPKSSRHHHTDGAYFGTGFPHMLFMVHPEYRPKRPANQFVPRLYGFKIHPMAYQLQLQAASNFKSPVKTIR
row,Structure (SMILES),IC50 [nM]
1,"CO[C@@H]1CN(c2cc(C#N)cc(Nc3nc(NC4CC4)c4ncc(C#N)n4n3)c2Cl)CC[C@H]1N (racemic) [Example 188, (+/−)-2-((3-((3R,4R)-4-amino-3-methoxypiperidin-1-yl)-2-chloro-5-cyanophenyl)amino)-4-(cyclopropylamino)imidazo[2,1-f][1,2,4]triazine-7-carbonitrile]",200
2,"CC1(N2CCN(c3cc(OC(F)F)cc(Nc4nc(NC5CC5)c5ncc(C#N)n5n4)c3Cl)CC2)COC1 [Example 561, 2-((2-chloro-5-(difluoromethoxy)-3-(4-(3-methyloxetan-3-yl)piperazin-1-yl)phenyl)amino)-4-(cyclopropylamino)imidazo[2,1-f][1,2,4]triazine-7-carbonitrile]",2.08
3,"N#Cc1cc(Nc2nc(NC3CC3)c3ncc(C#N)n3n2)c(Cl)c(N2CCN(CC(N)=O)CC2)c1 [Example 600, 2-[4-(2-chloro-5-cyano-3-{[7-cyano-4-(cyclopropylamino)imidazo[2,1-f][1,2,4]triazin-2-yl]amino}phenyl)piperazin-1-yl]acetamide]",0.53
4,"CC1(O)CCN(C2CN(c3cc(C#N)cc(Nc4nc(NC5CC5)c5ncc(C#N)n5n4)c3Cl)C2)CC1 [Example 157, 2-((2-chloro-5-cyano-3-(3-(4-hydroxy-4-methyl-1-piperidinyl)-1-azetidinyl)phenyl)amino)-4-(cyclopropylamino)imidazo [2,1-f][1,2,4]triazine-7-carbonitrile]",0.8
5,"N#Cc1cc(Nc2nc(NC3CC3)c3ncc(C#N)n3n2)c(Cl)c(C2CCN(C(=O)C3(O)CC3)CC2)c1 [Example 232, 2-((2-chloro-5-cyano-3-(1-((1-hydroxycyclopropyl)carbonyl)-4-piperidinyl)phenyl)amino)-4-(cyclopropylamino)imidazo[2,1-f][1,2,4]triazine-7-carbonitrile]",0.62
6,"CN(C)C(=O)C1CN(c2cc(C#N)cc(Nc3nc(NC4CC4)c4ncc(C#N)n4n3)c2Cl)CCN1C1COC1 (stereo not shown) [Example 564, 4-(2-chloro-5-cyano-3-((7-cyano-4-(cyclopropylamino)imidazo[2,1-f][1,2,4]triazin-2-yl)amino)phenyl)-N,N-dimethyl-1-(oxetan-3-yl)piperazine-2-carboxamide]",4.86
7,"N#Cc1cc(Nc2nc(NC3CC3)c3ncc(C#N)n3n2)c(Cl)c(C(O)CN2CCOCC2)c1 (stereo not shown) [Example 684, 2-((2-chloro-5-cyano-3-(1-hydroxy-2-morpholinoethyl)phenyl)amino)-4-(cyclopropylamino)imidazo[2,1-f][1,2,4]triazine-7-carbonitrile]",1.34
8,"N#Cc1cc(Nc2nc(NC3CC3)c3ncc(C#N)n3n2)c(Cl)c(N2CCN(CC3CCCCO3)CC2)c1 (stereo not shown) [Example 609, 2-({2-chloro-5-cyano-3-[4-(oxan-2-ylmethyl)piperazin-1-yl]phenyl}amino)-4-(cyclopropylamino)imidazo [2,1-f][1,2,4]triazine-7-carbonitrile]",1.39
9,"N#Cc1cnc2c(NC3CC3)nc(Nc3cc(C(N)=O)cc(N4CC(NC5COC5)C4)c3Cl)nn12 [Example 166, 4-chloro-3-((7-cyano-4-(cyclopropylamino)imidazo [2,1-f][1,2,4]triazin-2-yl)amino)-5-(3-(3-oxetanylamino)-1-azetidinyl)benzamide]",0.44
10,"COC(=O)N[C@H]1CCN(c2cc(C(N)=O)cc(Nc3nc(NC4CC4)c4ncc(C#N)n4n3)c2Cl)C[C@@H]1O [Example 388, methyl ((3S,4S)-1-(5-carbamoyl-2-chloro-3-((7-cyano-4-(cyclopropylamino)imidazo[2,1-f][1,2,4]triazin-2-yl)amino)phenyl)-3-hydroxypiperidin-4-yl)carbamate]",5.13
11,"CO[C@@H]1CN(c2cc(C#N)cc(Nc3nc(NC4CC4)c4ncc(C#N)n4n3)c2Cl)C[C@@H]1NC(=O)OC1COC1 [Example 291, 3-oxetanyl ((3S,4R)-1-(2-chloro-5-cyano-3-((7-cyano-4-(cyclopropylamino)imidazo[2,1-f][1,2,4]triazin-2-yl)amino)phenyl)-4-methoxy-3-pyrrolidinyl)carbamate]",0.59
12,"COC(=O)Nc1cc(Nc2nc(NC3CC3)c3ncc(C#N)n3n2)c(F)c(N2CCN(C)CC2)c1 [Example 385, methyl (3-((7-cyano-4-(cyclopropylamino)imidazo[2,1-f][1,2,4]triazin-2-yl)amino)-4-fluoro-5-(4-methylpiperazin-1-yl)phenyl)carbamate]",2.22
13,"COC(=O)NCC1CN(c2cc(C#N)cc(Nc3nc(NC4CC4)c4ncc(C#N)n4n3)c2Cl)CCO1 (stereo not shown) [Example 710, methyl N-{[4-(2-chloro-5-cyano-3-{[7-cyano-4-(cyclopropylamino)imidazo[2,1-f][1,2,4]triazin-2-yl]amino}phenyl)morpholin-2-yl]methyl}carbamate]",0.75
14,"N#Cc1cc(Nc2nc(NC3CC3)c3ncc(C#N)n3n2)c(Cl)c(N2C[C@@H]3CCCN(C4COC4)[C@@H]3C2)c1 [Example 778, 2-((2-chloro-5-cyano-3-((4aS,7aS)-1-(oxetan-3-yl)hexahydro-1H-pyrrolo[3,4-b]pyridin-6(2H)-yl)phenyl)amino)-4-(cyclopropylamino)imidazo[2,1-f][1,2,4]triazine-7-carbonitrile]",1.09
15,"CC1(N)CCN(c2cc(C(F)F)cc(Nc3nc(NC4CC4)c4ncc(C#N)n4n3)c2Cl)CC1 [Example 245, 2-((3-(4-amino-4-methyl-1-piperidinyl)-2-chloro-5-(difluoromethyl)phenyl)amino)-4-(cyclopropylamino)imidazo[2,1-f][1,2,4]triazine-7-carbonitrile]",0.51
16,"COC(=O)N1CCC2CCN(c3cc(C#N)cc(Nc4nc(NC5CC5)c5ncc(C#N)n5n4)c3Cl)CC21 (racemic) [Example 458, (+/−)-methyl 6-(2-chloro-5-cyano-3-((7-cyano-4-(cyclopropylamino)imidazo[2,1-f][1,2,4]triazin-2-yl)amino)phenyl)octahydro-1H-pyrrolo[2,3-c]pyridine-1-carboxylate]",16.4
17,"CN(C)C(=O)C1CN(c2cc(C#N)cc(Nc3nc(NC4CC4)c4ncc(C#N)n4n3)c2Cl)CCN1CC(O)CF (single isomer, unassigned) [Example 315, (+/−) 4-(2-chloro-5-cyano-3-((7-cyano-4-(cyclopropylamino)imidazo [2,1-f][1,2,4]triazin-2-yl)amino)phenyl)-1-(3-fluoro-2-hydroxypropyl)-N,N-dimethyl-2-piperazinecarboxamide]",0.37
18,"COC(=O)N1CCC2CN(c3cc(C#N)cc(Nc4nc(NC5CC5)c5ncc(C#N)n5n4)c3Cl)CCC21 (stereo not shown) [Example 445, methyl 5-(2-chloro-5-cyano-3-((7-cyano-4-(cyclopropylamino)imidazo[2,1-f][1,2,4]triazin-2-yl)amino)phenyl)octahydro-1H-pyrrolo[3,2-c]pyridine-1-carboxylate]",2.9
19,"N#CCC(=O)N1CCC(c2cc(C#N)cc(Nc3nc(NC4CC4)c4ncc(C#N)n4n3)c2Cl)CC1 [Example 230, 2-((2-chloro-5-cyano-3-(1-(cyanoacetyl)-4-piperidinyl)phenyl)amino)-4-(cyclopropylamino)imidazo[2,1-f][1,2,4]triazine-7-carbonitrile]",1.04
20,"C[C@@H](O)Cn1nc(C#N)c2cc(Nc3nc(NC4CC4)c4ncc(C#N)n4n3)ccc21 [Example 393, (R)-2-((3-cyano-1-(2-hydroxypropyl)-1H-indazol-5-yl)amino)-4-(cyclopropylamino)imidazo[2,1-f][1,2,4]triazine-7-carbonitrile, HCl]",0.43
21,"CN1CCN(c2cc(C#N)cc(Nc3nc(NC4CC4)c4ncc(C#N)n4n3)c2)C(=O)C1 [Example 629, 2-((3-cyano-5-(4-methyl-2-oxopiperazin-1-yl)phenyl)amino)-4-(cyclopropylamino)imidazo[2,1-f][1,2,4]triazine-7-carbonitrile]",6
22,"N#Cc1cc(Nc2nc(NC3CC3)c3ncc(C#N)n3n2)c(Cl)c(N2CCN(C(=O)OCC3CCCO3)CC2)c1 (stereo not shown) [Example 534, (tetrahydrofuran-2-yl)methyl 4-(2-chloro-5-cyano-3-((7-cyano-4-(cyclopropylamino)imidazo[2,1-f][1,2,4]triazin-2-yl)amino)phenyl)piperazine-1-carboxylate]",0.51
23,"N#Cc1cc(Nc2nc(NC3CC3)c3ncc(C#N)n3n2)c(Cl)c(N2CCN(CC3CNCCO3)CC2)c1 (stereo not shown) [Example 597, 2-({2-chloro-5-cyano-3-[4-(morpholin-2-ylmethyl)piperazin-1-yl]phenyl}amino)-4-(cyclopropylamino)imidazo [2,1-f][1,2,4]triazine-7-carbonitrile]",0.62
24,"CC(CCN1CC(O)C1)c1cc(C#N)cc(Nc2nc(NC3CC3)c3ncc(C#N)n3n2)c1Cl (stereo not shown) [Example 575, 2-((2-chloro-5-cyano-3-(4-(3-hydroxyazetidin-1-yl)butan-2-yl)phenyl)amino)-4-(cyclopropylamino)imidazo[2,1-f][1,2,4]triazine-7-carbonitrile]",0.98
25,"COC(=O)N[C@H]1CCN(c2cc(C#N)cc(Nc3nc(NC4CC4)c4ncc(C#N)n4n3)c2Cl)C[C@@H]1OC(=O)Cc1ccc(OP(=O)(O)O)cc1 [Example 199, (3S,4S)-1-(2-chloro-5-cyano-3-((7-cyano-4-(cyclopropylamino)imidazo[2,1-f][1,2,4]triazin-2-yl)amino)phenyl)-4-((methoxycarbonyl)amino)-3-piperidinyl (4-(phosphonooxy)phenyl)acetate]",0.45
26,"N#Cc1cc(Nc2nc(NC3CC3)c3ncc(C#N)n3n2)c(Cl)c(OCC2CNCCO2)c1 (stereo not shown) [Example 441, 2-((2-chloro-5-cyano-3-(morpholin-2-ylmethoxy)phenyl)amino)-4-(cyclopropylamino)imidazo[2,1-f][1,2,4]triazine-7-carbonitrile]",1.17
27,CN1CCC2CCN(c3cc(C#N)cc(Nc4nc(NC5CC5)c5ncc(C#N)n5n4)c3Cl)CC21 (racemic) [Example 456],2.9
28,"CC1(C(=O)N2CCC(c3cc(C#N)cc(Nc4nc(NC5CC5)c5ncc(C#N)n5n4)c3Cl)CC2)COC1 [Example 233, 2-((2-chloro-5-cyano-3-(1-((3-methyl-3-oxetanyl)carbonyl)-4-piperidinyl)phenyl)amino)-4-(cyclopropylamino)imidazo[2,1-f][1,2,4]triazine-7-carbonitrile]",0.58
